# According to patent US20240377321A1, “HOLOGRAPHIC IMAGE PROCESSING AND DATA EXTRACTION” (Accelerate Diagnostics, Inc., priority 2023, published 2024):
# Tested on: Klebsiella oxytoca (CDCJI 380)
# Experiment: holographic monitoring of cellular growth of Klebsiella oxytoca incubated with antibiotic
# Format: cell-based
# Conditions: 0.5 mg/mL Meropenem, about eight hours incubation
# Protocol: FIGS. 18A-18E depict a sequence of photographs A-E of a sample volume 18, with FIG. 18A depicting the earliest photograph, and FIG. 18E depicting the latest photograph. The photographs A-E show cellular growth of Klebsiella oxytoca (CDCJI 380), which was incubated with 0.5 mg/mL of the antibiotic Meropenem over a period of about eight hours. The photographs A-E provide an example of a complex response of microorganisms to an antibiotic. A holograph 32 of the sample volume 18 was captured every ten minutes during the incubation period. FIG. 19 depicts a graph including a plot 170 of a cellular growth indicator (e.g., the holographic intensity variance) extracted from the full holograph 32, and a plot 172 of the cellular growth indicator extracted from the set of pixels comprising tile six of the holograph 32. The times corresponding to the photographs A-E of FIGS. 18A-18E are indicted by correspondingly labeled arrows in the graph of FIG. 19. […] The slight rise in the cellular growth indicator after seven hours is the earliest indication of a potential resurgence of cell growth, e.g., due to the microorganism becoming resistant.
# The divergence of tile plot 172 from the full-holograph plot 170 begins at about the three and half hour mark. This is due to the response of the microorganism to the antibiotic in the localized region of the sample volume corresponding to tile six. This region of the sample volume contains a subpopulation of bacterial cells that appear to have become resistant to the antibiotic, and have begun to grow in colony clusters. This example of delayed resistance to an antibiotic is clinically relevant, and recognizing the resistance early in a test can lead to timely administration of the correct antibiotic at the right dose to treat the patient. From an algorithmic perspective, systematically dividing holographs into portions (e.g., tiles) and calculating the cellular growth indicator for each portion can be used to identify events or hot spots in the growth or death of microorganisms.
compound,measurement,setting,value
C[C@@H](O)[C@H]1C(=O)N2C(C(=O)O)=C(S[C@@H]3CN[C@H](C(=O)N(C)C)C3)[C@H](C)[C@H]12 [Meropenem],"cellular growth indicator (e.g., holographic intensity variance) over time, full holograph",full-holograph plot 170,"decreases after three and a half hours of incubation, followed by a slight increase after seven hours of incubation"
same,response of microorganism to antibiotic based on full-holograph plot,"holograph every ten minutes, full-holograph plot 170",appears to be sensitive to the dose of antibiotic
same,"cellular growth indicator over time, tile six of the holograph",tile plot 172 (tile six),resurgent growth due to emerging antibiotic resistance at about four and a half hours
